The results in this text go back to patent US20260206755A1, “COMPOUNDS AND COMPOSITIONS HAVING KNOCK-DOWN OR BLOOD FEED INHIBITION ACTIVITY AGAINST INSECT PESTS” (priority 2017, published 2026).

In this data set the test system is Anopheles stephensi. Kind of data set: Anopheles stephensi treated well plate contact test: knockdown and mortality. The data set is classed as in vivo. The protocol:
Examples Anopheles stephensi (Indian Malaria Mosquito)
The individual wells of twelve (12) well tissue culture plates were treated with 200 μl of an ethanol solution containing a test compound of Table 1 or Table 2 at a defined concentration and repeated with also 200 μl of an ethanol solution containing in addition 2 ppm TFNA-AM. Once the deposits were dry, five non-blood fed adult female Anopheles stephensi (between two to five day old) were added to each well, and sustained with a 10% sucrose solution in a cotton wool plug. Assessment of the knockdown after 1 hour, and mortality after 24 and 48 hours was carried out.
In case of multiple tests, the mean value is reported.

[1] abbreviates: Anopheles stephensi, 24 h, read-out: mortality % 24, without TFNA-AM.
Where [2] appears, read: Anopheles stephensi, 48 h, read-out: mortality % 48, without TFNA-AM.
The mark [3] stands for this setting: Anopheles stephensi, test compound 0.2 ppm, without TFNA-AM, knockdown after 1 hour, read-out: Knock Down, without TFNA-AM.
Where [4] appears, read: Anopheles stephensi, test compound 2 ppm, without TFNA-AM, knockdown after 1 hour, read-out: Knock Down, without TFNA-AM.
[5] abbreviates: Anopheles stephensi, test compound 20 ppm, without TFNA-AM, knockdown after 1 hour, read-out: Knock Down, without TFNA-AM.
[6] abbreviates: test compound 0.2 ppm plus 2 ppm TFNA-AM, after 24 hours.
Where [7] appears, read: test compound 0.2 ppm plus 2 ppm TFNA-AM, after 48 hours.
The mark [8] stands for this setting: test compound 0.2 ppm plus 2 ppm TFNA-AM, knockdown after 1 hour.
Setting [9] is: test compound 2 ppm plus 2 ppm TFNA-AM, after 24 hours.
The mark [10] stands for this setting: test compound 2 ppm plus 2 ppm TFNA-AM, after 48 hours.
Where [11] appears, read: test compound 2 ppm plus 2 ppm TFNA-AM, knockdown after 1 hour.
[12] abbreviates: test compound 20 ppm plus 2 ppm TFNA-AM, after 24 hours.
Setting [13] is: test compound 20 ppm plus 2 ppm TFNA-AM, after 48 hours.
Setting [14] is: test compound 20 ppm plus 2 ppm TFNA-AM, knockdown after 1 hour.
The mark [15] stands for this setting: test compound 200 ppm plus 2 ppm TFNA-AM, after 24 hours.
Where [16] appears, read: test compound 200 ppm plus 2 ppm TFNA-AM, after 48 hours.
The mark [17] stands for this setting: test compound 200 ppm plus 2 ppm TFNA-AM, knockdown after 1 hour.
The mark [18] stands for this setting: Anopheles stephensi, test compound 0.2 ppm, without TFNA-AM, after 24 hours, read-out: mortality % 24, without TFNA-AM.
Setting [19] is: Anopheles stephensi, test compound 0.2 ppm, without TFNA-AM, after 48 hours, read-out: mortality % 48, without TFNA-AM.
Where [20] appears, read: Anopheles stephensi, test compound 2 ppm, without TFNA-AM, after 24 hours, read-out: mortality % 24, without TFNA-AM.
[21] abbreviates: Anopheles stephensi, test compound 2 ppm, without TFNA-AM, after 48 hours, read-out: mortality % 48, without TFNA-AM.
[22] abbreviates: Anopheles stephensi, test compound 20 ppm, without TFNA-AM, after 24 hours, read-out: mortality % 24, without TFNA-AM.
Where [23] appears, read: Anopheles stephensi, test compound 20 ppm, without TFNA-AM, after 48 hours, read-out: mortality % 48, without TFNA-AM.
The mark [24] stands for this setting: Anopheles stephensi, test compound 200 ppm, without TFNA-AM, after 24 hours, read-out: mortality % 24, without TFNA-AM.
Setting [25] is: Anopheles stephensi, test compound 200 ppm, without TFNA-AM, after 48 hours, read-out: mortality % 48, without TFNA-AM.
Where [26] appears, read: Anopheles stephensi, test compound 200 ppm, without TFNA-AM, knockdown after 1 hour, adult females, read-out: Knock Down, without TFNA-AM.

Like-named read-outs stand apart in the source and are kept apart here.

In general, mortality refers to the percentage killed. For the compound `CNC(=O)Oc1cccc2c1OC(C)(C)O2` [Bendiocarb], the mortality at 0.02 ppm amounted to 0% under setting [1] and 0% under setting [2]. In addition, the mortality at 0.2 ppm is, setting by setting: under setting [1], 60%; under setting [2], 60%. Moreover, the mortality at 2 ppm runs as follows: under setting [1], 100%; under setting [2], 100%. The mortality at 20 ppm reads like this: under setting [1], 100%; under setting [2], 100%. Moreover, the pest or weed control at 0.02 ppm (Anopheles stephensi, test compound 0.02 ppm, without TFNA-AM, knockdown after 1 hour, read-out: Knock Down, without TFNA-AM) amounted to 0%. Further, under setting [3], the pest or weed control at 0.2 ppm was determined as 20%. Moreover, the pest or weed control at 2 ppm under setting [4] is 100%. For the same compound, under setting [5], the pest or weed control at 20 ppm was 100%. Moreover, the “mortality % 24, with TFNA-AM” value reads like this: (test compound 0.02 ppm plus 2 ppm TFNA-AM, after 24 hours) 20%; under setting [6], 100%; under setting [9], 100%; under setting [12], 100%. Moreover, the “Knock Down, with TFNA-AM” value runs as follows: (test compound 0.02 ppm plus 2 ppm TFNA-AM, knockdown after 1 hour) 100%; under setting [8], 100%; under setting [11], 100%; under setting [14], 100%. Further, the “mortality % 48, with TFNA-AM” value runs as follows: under setting [7], 100%; under setting [10], 100%; under setting [13], 100%.
On to `CN(C(=O)c1ccccc1)c1cccc(C(=O)Nc2c(Br)cc(C(F)(C(F)(F)F)C(F)(F)F)cc2C(F)(F)F)c1F` [Broflanilide], for which the “mortality % 24, with TFNA-AM” value runs as follows: under setting [6], 87%; under setting [9], 100%; under setting [12], 100%; under setting [15], 100%. The “mortality % 48, with TFNA-AM” value under setting [7] was 93%; the “mortality % 48, with TFNA-AM” value under setting [10] is recorded as 100%; the “mortality % 48, with TFNA-AM” value under setting [13] was 100%; the “mortality % 48, with TFNA-AM” value under setting [16] came to 100%. Besides, the “Knock Down, with TFNA-AM” value runs as follows: under setting [8], 100%; under setting [11], 100%; under setting [14], 93%; under setting [17], 87%. Also, the “mortality % 24, without TFNA-AM” value (test compound 0.2 ppm, without TFNA-AM, after 24 hours) stood at 0%; the “mortality % 24, without TFNA-AM” value (test compound 2 ppm, without TFNA-AM, after 24 hours) is recorded as 100%; the “mortality % 24, without TFNA-AM” value (test compound 20 ppm, without TFNA-AM, after 24 hours) is 100%; the “mortality % 24, without TFNA-AM” value (test compound 200 ppm, without TFNA-AM, after 24 hours) is given as 100%. In addition, the “mortality % 48, without TFNA-AM” value is on record as 20% (test compound 0.2 ppm, without TFNA-AM, after 48 hours); 100% (test compound 2 ppm, without TFNA-AM, after 48 hours); 100% (test compound 20 ppm, without TFNA-AM, after 48 hours); 100% (test compound 200 ppm, without TFNA-AM, after 48 hours). The “Knock Down, without TFNA-AM” value (test compound 0.2 ppm, without TFNA-AM, knockdown after 1 hour) was determined as 0%; the “Knock Down, without TFNA-AM” value (test compound 2 ppm, without TFNA-AM, knockdown after 1 hour) was found to be 0%; the “Knock Down, without TFNA-AM” value (test compound 20 ppm, without TFNA-AM, knockdown after 1 hour) was 0%; the “Knock Down, without TFNA-AM” value (test compound 200 ppm, without TFNA-AM, knockdown after 1 hour, adult females) was 0%.
For `CC(C)N1C(=O)N(c2ccccc2)CS/C1=N\C(C)(C)C` [Buprofezin], the mortality at 0.2 ppm reads like this: under setting [18], 0%; under setting [19], 0%. Further, the pest or weed control at 0.2 ppm under setting [3] is 0%. The mortality at 2 ppm by setting is: under setting [20], 0%; under setting [21], 0%. Further, the pest or weed control at 2 ppm under setting [4] worked out at 0%. For the same compound, the mortality at 20 ppm worked out at 0% under setting [22] and 0% under setting [23]. Besides, the pest or weed control at 20 ppm under setting [5] turned out to be 0%. Besides, the mortality at 200 ppm amounted to 0% under setting [24] and 0% under setting [25]. In addition, the pest or weed control at 200 ppm under setting [26] came to 0%. Also, the “mortality % 24, with TFNA-AM” value stood at 80% under setting [6], 100% under setting [9], 100% under setting [12] and 80% under setting [15]. In addition, the “mortality % 48, with TFNA-AM” value runs as follows: under setting [7], 60%; under setting [10], 60%; under setting [13], 60%; under setting [16], 40%. For the same compound, the “Knock Down, with TFNA-AM” value by setting is: under setting [8], 100%; under setting [11], 100%; under setting [14], 100%; under setting [17], 100%.
As to `CN/C(=N\[N+](=O)[O-])NCc1cnc(Cl)s1` [Clothianidin], the mortality at 0.2 ppm reads like this: under setting [18], 0%; under setting [19], 0%. Under setting [3], the pest or weed control at 0.2 ppm came out at 0%. For the same compound, the mortality at 2 ppm came to 0% under setting [20] and 0% under setting [21]. The pest or weed control at 2 ppm under setting [4] worked out at 0%. Further, the mortality at 20 ppm by setting is: under setting [22], 0%; under setting [23], 20%. Besides, the pest or weed control at 20 ppm under setting [5] turned out to be 0%. Besides, the mortality at 200 ppm amounted to 0% under setting [24] and 20% under setting [25]. Also, the pest or weed control at 200 ppm under setting [26] was determined as 0%. Further, the “mortality % 48, with TFNA-AM” value reads like this: under setting [7], 0%; under setting [10], 100%; under setting [13], 100%; under setting [16], 100%. Further, the “Knock Down, with TFNA-AM” value is on record as 100% under setting [8], 100% under setting [11], 100% under setting [14] and 100% under setting [17]. The “mortality % 24, with TFNA-AM” value runs as follows: under setting [9], 100%; under setting [12], 100%; under setting [15], 100%.
As to `CO/C=C(/C(=O)OC)c1ccccc1Oc1nc(C(C)(C)C)ns1` [Compound 48], the mortality at 0.2 ppm runs as follows: under setting [18], 0%; under setting [19], 0%. Also, the pest or weed control at 0.2 ppm under setting [3] was 20%. The mortality at 2 ppm amounted to 100% under setting [20] and 100% under setting [21]. Besides, under setting [4], the pest or weed control at 2 ppm came to 60%. The mortality at 20 ppm is, setting by setting: under setting [22], 100%; under setting [23], 100%. For the same compound, under setting [5], the pest or weed control at 20 ppm is 100%. The mortality at 200 ppm was 100% under setting [24] and 100% under setting [25]. Also, the pest or weed control at 200 ppm under setting [26] was 100%. For the same compound, the “mortality % 24, with TFNA-AM” value runs as follows: under setting [6], 80%; under setting [9], 100%; under setting [12], 100%; under setting [15], 100%. Besides, the “mortality % 48, with TFNA-AM” value by setting is: under setting [7], 100%; under setting [10], 100%; under setting [13], 100%; under setting [16], 100%. Besides, the “Knock Down, with TFNA-AM” value reads like this: under setting [8], 100%; under setting [11], 100%; under setting [14], 100%; under setting [17], 100%.
As to `CO/C=C(/C(=O)OC)c1ccccc1Oc1cc(C(F)(F)F)ccn1` [Compound 49], the mortality at 0.2 ppm under setting [18] was 0% and the mortality at 0.2 ppm under setting [19] is 0%. Moreover, the pest or weed control at 0.2 ppm under setting [3] stood at 0%. For the same compound, the mortality at 2 ppm came out at 60% under setting [20] and 60% under setting [21]. The pest or weed control at 2 ppm under setting [4] is 0%. Also, the mortality at 20 ppm is, setting by setting: under setting [22], 100%; under setting [23], 100%. Further, under setting [5], the pest or weed control at 20 ppm amounted to 50%. Besides, the mortality at 200 ppm by setting is: under setting [24], 100%; under setting [25], 100%. Also, the pest or weed control at 200 ppm under setting [26] is 50%. In addition, the “mortality % 24, with TFNA-AM” value is, setting by setting: under setting [6], 50%; under setting [9], 90%; under setting [12], 100%; under setting [15], 100%. The “mortality % 48, with TFNA-AM” value by setting is: under setting [7], 10%; under setting [10], 90%; under setting [13], 90%; under setting [16], 90%. Further, the “Knock Down, with TFNA-AM” value is, setting by setting: under setting [8], 90%; under setting [11], 100%; under setting [14], 100%; under setting [17], 100%.
